Patent US20250325677A1, “STAT6 DEGRADERS” (Gilead Sciences, Inc., priority 2024, published 2025)

How the values were obtained:
STAT6 = STAT6 (Homo sapiens (Human), UniProt P42226); assay: STAT6 degrader assay (HiBiT, HeLa LgBiT clone 4.14); format: cell-based; settings: HeLa LgBiT clone 4.14, 4-24 h; geometric mean; given for compounds with >80% Emax; read-out: STAT6 degradation DC50
In short: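 HeLa LgBiT clone 4.14 cells with HiBiT knocked into endogenous STAT6 were treated with compound for 4-24 h at 37° C. Luminescence after Nano-GLO substrate (0.5 h) measured remaining STAT6; 50 μM terfenadine wells defined 100% degradation, and DC50 (nM) was derived.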

eotaxin-3 release = assay: Human whole blood eotaxin-3 assay (IL-4 stimulated); format: cell-based; settings: human whole blood, IL-4 0.4 nM, 48 hours; geometric mean; given for compounds with >80% Emax; read-out: Eotaxin-3 EC50
In short: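 Human whole blood was preincubated with compound for 120 min at 37 °C, then stimulated with recombinant human IL-4 (E. coli) at 0.4 nM final for 48 h. Inhibition of eotaxin-3 release gave EC50 values.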

Chain of STAT6 (P42226 whole entry): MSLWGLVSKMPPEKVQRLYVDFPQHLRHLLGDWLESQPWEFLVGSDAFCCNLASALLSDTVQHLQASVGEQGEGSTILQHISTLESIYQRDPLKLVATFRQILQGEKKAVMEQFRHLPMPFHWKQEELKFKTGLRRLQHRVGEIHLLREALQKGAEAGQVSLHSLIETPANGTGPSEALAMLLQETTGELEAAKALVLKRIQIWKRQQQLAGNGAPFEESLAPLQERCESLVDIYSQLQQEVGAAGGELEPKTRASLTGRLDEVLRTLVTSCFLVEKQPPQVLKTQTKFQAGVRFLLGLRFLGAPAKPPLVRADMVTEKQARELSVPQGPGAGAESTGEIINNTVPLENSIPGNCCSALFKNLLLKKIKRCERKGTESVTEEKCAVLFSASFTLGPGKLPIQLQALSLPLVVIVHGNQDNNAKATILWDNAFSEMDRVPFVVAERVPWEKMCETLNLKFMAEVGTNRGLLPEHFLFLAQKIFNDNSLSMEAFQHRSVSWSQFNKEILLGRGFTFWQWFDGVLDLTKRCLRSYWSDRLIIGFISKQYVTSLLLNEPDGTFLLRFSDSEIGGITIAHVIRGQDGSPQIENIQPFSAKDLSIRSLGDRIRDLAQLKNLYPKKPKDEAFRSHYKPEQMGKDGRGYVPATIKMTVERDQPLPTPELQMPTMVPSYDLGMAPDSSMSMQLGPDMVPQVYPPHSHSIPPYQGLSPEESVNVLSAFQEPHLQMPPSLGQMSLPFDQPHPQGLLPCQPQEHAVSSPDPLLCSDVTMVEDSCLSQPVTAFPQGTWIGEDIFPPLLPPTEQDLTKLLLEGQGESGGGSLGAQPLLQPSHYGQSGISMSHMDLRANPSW

Row | SMILES | DC50 (STAT6) [nM] | EC50 (eotaxin-3 release) [nM]
1 | CNc1ccc(-c2ccnc3c2cc([C@H](C)N2CCC(c4ccc(C(=O)N5CCC(CN6CCN(Cc7ccc8c(c7)n(C7CC7)c(=O)n8C7CCC(=O)NC7=O)C[C@@H]6C)CC5)cc4)CC2)n3C)cn1 (stereo partly drawn) [Example 3h25, 3-(3-cyclopropyl-5-(((S)-3-methyl-4-((1-(4-(1-((S)-1-(1-methyl-4-(6-(methylamino)pyridin-3-yl)-1H-pyrrolo[2,3-b]pyridin-2-yl)ethyl)piperidin-4-yl)benzoyl)piperidin-4-yl)methyl)piperazin-1-yl)methyl)-2-oxo-2,3-dihydro-1H-benzo[d]imidazol-1-yl)piperidine-2,6-dione] | 1.9 | 3.4
2 | C[C@H]1CN(Cc2ccc3c(c2)C(C)(C)C(=O)N3[C@H]2CCC(=O)NC2=O)CCN1CC1CCN(C(=O)c2ccc(C3CCN([C@@H](C)c4cc5c(-c6ccc(N)nc6)ccnc5n4C)CC3)cc2)CC1 [Example 3h31, (S)-3-(5-(((S)-4-((1-(4-(1-((S)-1-(4-(6-aminopyridin-3-yl)-1-methyl-1H-pyrrolo[2,3-b]pyridin-2-yl)ethyl)piperidin-4-yl)benzoyl)piperidin-4-yl)methyl)-3-methylpiperazin-1-yl)methyl)-3,3-dimethyl-2-oxoindolin-1-yl)piperidine-2,6-dione] | 2.5 | 8
3 | C[C@H]1CN(Cc2ccc3c(c2)C(C)(C)C(=O)N3[C@@H]2CCC(=O)NC2=O)CCN1CC1CCN(C(=O)c2ccc(C3CCN([C@@H](C)c4cc5c(-c6ccc(N)nc6)ccnc5n4C)CC3)cc2)CC1 [Example 3h32, (R)-3-(5-(((S)-4-((1-(4-(1-((S)-1-(4-(6-aminopyridin-3-yl)-1-methyl-1H-pyrrolo[2,3-b]pyridin-2-yl)ethyl)piperidin-4-yl)benzoyl)piperidin-4-yl)methyl)-3-methylpiperazin-1-yl)methyl)-3,3-dimethyl-2-oxoindolin-1-yl)piperidine-2,6-dione] | 2.9 | 22.4
4 | CNc1ccc(-c2ccnc3c2cc([C@H](C)N2CC=C(c4c(C)cc(C(=O)N5CCC(CN6CCN(Cc7cc8c(cc7F)N(C7CCC(=O)NC7=O)C(=O)C8(C)C)C[C@@H]6C)CC5)cc4F)CC2)n3C)cn1 (stereo partly drawn) [Example 3h33, 3-(6-fluoro-5-(((S)-4-((1-(3-fluoro-5-methyl-4-(1-((S)-1-(1-methyl-4-(6-(methylamino)pyridin-3-yl)-1H-pyrrolo[2,3-b]pyridin-2-yl)ethyl)-1,2,3,6-tetrahydropyridin-4-yl)benzoyl)piperidin-4-yl)methyl)-3-methylpiperazin-1-yl)methyl)-3,3-dimethyl-2-oxoindolin-1-yl)piperidine-2,6-dione] | 36.7 | 40.4
5 | CNc1ccc(-c2ccnc3c2cc([C@H](C)N2CC=C(c4c(C)cc(C(=O)N5CCC(CN6CCN(Cc7cc8c(cc7F)N(C7CCC(=O)NC7=O)C(=O)C87CC7)CC6)CC5)cc4F)CC2)n3C)cn1 (stereo partly drawn) [Example 3h34, 3-(6′-fluoro-5′-((4-((1-(3-fluoro-5-methyl-4-(1-((S)-1-(1-methyl-4-(6-(methylamino)pyridin-3-yl)-1H-pyrrolo[2,3-b]pyridin-2-yl)ethyl)-1,2,3,6-tetrahydropyridin-4-yl)benzoyl)piperidin-4-yl)methyl)piperazin-1-yl)methyl)-2′-oxospiro[cyclopropane-1,3′-indolin]-1′-yl)piperidine-2,6-dione] | 5.5 | 8.5
6 | CNc1ccc(-c2ccnc3c2cc([C@H](C)N2CC=C(c4c(C)cc(C(=O)N5CCC(CN6CCN(Cc7ccc8c(c7)C7(CCC7)C(=O)N8C7CCC(=O)NC7=O)C[C@@H]6C)CC5)cc4F)CC2)n3C)cn1 (stereo partly drawn) [Example 3h47, 3-(5′-(((S)-4-((1-(3-fluoro-5-methyl-4-(1-((S)-1-(1-methyl-4-(6-(methylamino)pyridin-3-yl)-1H-pyrrolo[2,3-b]pyridin-2-yl)ethyl)-1,2,3,6-tetrahydropyridin-4-yl)benzoyl)piperidin-4-yl)methyl)-3-methylpiperazin-1-yl)methyl)-2′-oxospiro[cyclobutane-1,3′-indolin]-1′-yl)piperidine-2,6-dione] | 7 | 8.8
7 | C[C@@H](c1cc2c(-c3ccc(N)nc3)ccnc2n1C)N1CCC(c2ccc(C(=O)N3CCC(CN4CCN(Cc5ccc6c(c5)oc(=O)n6C5CCC(=O)NC5=O)CC4)CC3)cc2)CC1 (stereo partly drawn) [Example 3n5, 3-(6-((4-((1-(4-(1-((S)-1-(4-(6-aminopyridin-3-yl)-1-methyl-1H-pyrrolo[2,3-b]pyridin-2-yl)ethyl)-piperidin-4-yl)benzoyl)piperidin-4-yl)methyl)piperazin-1-yl)methyl)-2-oxobenzo[d]oxazol-3 (2H)-yl)piperidine-2,6-dione] | 2.7 | 6
8 | C[C@H]1CN(Cc2ccc3c(c2)oc(=O)n3C2CCC(=O)NC2=O)CCN1CC1CCN(C(=O)c2ccc(C3CCN([C@@H](C)c4cc5c(-c6ccc(N)nc6)ccnc5n4C)CC3)cc2)CC1 (stereo partly drawn) [Example 3n6, 3-(6-(((S)-4-((1-(4-(1-((S)-1-(4-(6-aminopyridin-3-yl)-1-methyl-1H-pyrrolo[2,3-b]pyridin-2-yl)ethyl)piperidin-4-yl)benzoyl)piperidin-4-yl)methyl)-3-methylpiperazin-1-yl)methyl)-2-oxobenzo[d]oxazol-3 (2H)-yl)piperidine-2,6-dione] | 0.7 | 4
9 | CN(C(=O)c1ccc(C2CCN(Cc3cc4c(-c5ccc(N)nc5)ccnc4n3C)CC2)cc1)c1ccc(C2CCN(Cc3ccc4c(c3)n(C)c(=O)n4C3CCC(=O)NC3=O)CC2(F)F)cc1 (centres unmarked) [Example 3p2, 4-(1-((4-(6-aminopyridin-3-yl)-1-methyl-1H-pyrrolo[2,3-b]pyridin-2-yl)methyl)piperidin-4-yl)-N-(4-(1-((1-(2,6-dioxopiperidin-3-yl)-3-methyl-2-oxo-2,3-dihydro-1H-benzo[d]imidazol-5-yl)methyl)-3,3-difluoropiperidin-4-yl)phenyl)-N-methylbenzamide] | 0.8 | 17

Now from value to compound:

Row | DC50 (STAT6) [nM] | EC50 (eotaxin-3 release) [nM] | SMILES
10 | 1.4 | 3.9 | C[C@H]1CN(Cc2ccc3c(c2)C2(CC2)C(=O)N3C2CCC(=O)NC2=O)CCN1CC1CCN(C(=O)c2cc(F)c(C3CCN(Cc4cc5c(-c6ccc(N)nc6)ccnc5n4C)CC3)c(F)c2)CC1 (stereo partly drawn) [Example 3h24, 3-(5′-(((S)-4-((1-(4-(1-((4-(6-aminopyridin-3-yl)-1-methyl-1H-pyrrolo[2,3-b]pyridin-2-yl)methyl)piperidin-4-yl)-3,5-difluorobenzoyl)piperidin-4-yl)methyl)-3-methylpiperazin-1-yl)methyl)-2′-oxospiro[cyclopropane-1,3′-indolin]-1′-yl)piperidine-2,6-dione]
11 | 1.7 | 7.1 | CNc1ccc(-c2ccnc3c2cc(CN2CCC(c4c(F)cc(C(=O)N5CCC(CN6CCN(Cc7ccc8c(c7)C7(CC7)C(=O)N8C7CCC(=O)NC7=O)C[C@@H]6C)CC5)cc4F)CC2)n3C)cn1 (stereo partly drawn) [Example 3h38, 3-(5′-(((S)-4-((1-(3,5-difluoro-4-(1-((1-methyl-4-(6-(methylamino)pyridin-3-yl)-1H-pyrrolo [2,3-b]pyridin-2-yl)methyl)piperidin-4-yl)benzoyl)piperidin-4-yl)methyl)-3-methylpiperazin-1-yl)methyl)-2′-oxospiro[cyclopropane-1,3′-indolin]-1′-yl)piperidine-2,6-dione]
12 | 3 | 13.2 | C[C@H]1CN(Cc2ccc3c(c2)C2(CCC2)C(=O)N3C2CCC(=O)NC2=O)CCN1CC1CCN(C(=O)c2ccc(C3CCN([C@@H](C)c4cc5c(-c6ccc(N)nc6)ccnc5n4C)CC3)cc2)CC1 (stereo partly drawn) [Example 3h48, 3-(5′-(((S)-4-((1-(4-(1-((S)-1-(4-(6-aminopyridin-3-yl)-1-methyl-1H-pyrrolo[2,3-b]pyridin-2-yl)ethyl)piperidin-4-yl)benzoyl)piperidin-4-yl)methyl)-3-methylpiperazin-1-yl)methyl)-2′-oxospiro-[cyclobutane-1,3′-indolin]-1′-yl)piperidine-2,6-dione]
13 | 4.1 | 14.7 | C[C@H]1CN(Cc2ccc3c(c2)C(C)(C)C(=O)N3C2CCC(=O)NC2=O)CCN1CC1CCN(C(=O)c2ccc(C3CCN([C@@H](C)c4cc5c(-c6ccc(N)nc6)ccnc5n4C)CC3)cc2)CC1 (stereo partly drawn) [Example 3r2, 3-(5-(((S)-4-((1-(4-(1-((S)-1-(4-(6-aminopyridin-3-yl)-1-methyl-1H-pyrrolo[2,3-b]pyridin-2-yl)ethyl)piperidin-4-yl)benzoyl)piperidin-4-yl)methyl)-3-methylpiperazin-1-yl)methyl)-3,3-dimethyl-2-oxoindolin-1-yl)piperidine-2,6-dione]
